Assay results taken from PubChem BioAssay AID1963435 (Molecular Pharmacology Branch, DTP, NCI, 2024).

System: PANC-1 complex spheroid growth, percent test/control
Assay: Anticancer human tumor PANC-1 cell line growth inhibition [Asc];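 note: spheroids exposed to agents for 7 days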;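 for viability, T/C: percent viability relative to DMSO vehicle wells taken as 100%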
Details: for IC50: curve of first compound; for viability, T/C: stronger effect = lower value
In short: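 Concentration series start at each agent's clinical Cmax, or at 10 microM when none is established, and drop in half-log steps; agents are applied alone or together to complex spheroids built with HUVEC and hMSC.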

[1] = second compound 0.00316 µM, first compound 0.00316 µM
[2] = second compound 0.00316 µM, first compound 0.01 µM
[3] = second compound 0.00316 µM, first compound 0.0316 µM
[4] = second compound 0.00316 µM, first compound 0.1 µM
[5] = second compound 0.01 µM, first compound 0.00316 µM
[6] = second compound 0.01 µM, first compound 0.01 µM
[7] = second compound 0.01 µM, first compound 0.0316 µM
[8] = second compound 0.01 µM, first compound 0.1 µM
[9] = second compound 0.0316 µM, first compound 0.00316 µM
[10] = second compound 0.0316 µM, first compound 0.01 µM
[11] = second compound 0.0316 µM, first compound 0.0316 µM
[12] = second compound 0.0316 µM, first compound 0.1 µM
[13] = second compound 0.1 µM, first compound 0.00316 µM
[14] = second compound 0.1 µM, first compound 0.01 µM
[15] = second compound 0.1 µM, first compound 0.0316 µM
[16] = second compound 0.1 µM, first compound 0.1 µM
[17] = second compound 0.316 µM, first compound 0.00316 µM
[18] = second compound 0.316 µM, first compound 0.01 µM
[19] = second compound 0.316 µM, first compound 0.0316 µM
[20] = second compound 0.316 µM, first compound 0.1 µM
[21] = second compound 1 µM, first compound 0.00316 µM
[22] = second compound 1 µM, first compound 0.01 µM
[23] = second compound 1 µM, first compound 0.0316 µM
[24] = second compound 1 µM, first compound 0.1 µM

COc1c(OCCCN2CCOCC2)ccc2c3n(c(=NC(=O)c4cnc(N)nc4)nc12)CCN3 + CNC(C)C(=O)NC1CN(S(=O)(=O)c2cccc(S(=O)(=O)N3CCC4CCC(C(=O)NC(c5ccccc5)c5ccccc5)N4C(=O)C(NC(=O)C(C)NC)C3)c2)CCC2CCC(C(=O)NC(c3ccccc3)c3ccccc3)N2C1=O
IC50 (second compound 0.00316 µM): 289 nM
IC50 (second compound 0.01 µM): 225 nM
IC50 (second compound 0.0316 µM): 199 nM
IC50 (second compound 0.1 µM): 157 nM
IC50 (second compound 0.316 µM): 159 nM
IC50 (second compound 1 µM): 191 nM
viability, T/C [1]: 107%
viability, T/C [2]: 92.4%
viability, T/C [3]: 87.6%
viability, T/C [4]: 74.8%
viability, T/C (second compound 0.00316 µM, first compound 0.316 µM): 45.6%
viability, T/C (second compound 0.00316 µM, first compound 1 µM): 18.7%
viability, T/C [5]: 96.1%
viability, T/C [6]: 95.5%
viability, T/C [7]: 94.2%
viability, T/C [8]: 65.7%
viability, T/C (second compound 0.01 µM, first compound 0.316 µM): 44%
viability, T/C (second compound 0.01 µM, first compound 1 µM): 15.6%
viability, T/C [9]: 95.2%
viability, T/C [10]: 99.1%
viability, T/C [11]: 89.9%
viability, T/C [12]: 62.8%
viability, T/C (second compound 0.0316 µM, first compound 0.316 µM): 41.3%
viability, T/C (second compound 0.0316 µM, first compound 1 µM): 13.2%
viability, T/C [13]: 103%
viability, T/C [14]: 90.7%
viability, T/C [15]: 82.1%
viability, T/C [16]: 56.6%
viability, T/C (second compound 0.1 µM, first compound 0.316 µM): 36.8%
viability, T/C (second compound 0.1 µM, first compound 1 µM): 12.3%
viability, T/C [17]: 98.7%
viability, T/C [18]: 91.7%
viability, T/C [19]: 85.2%
viability, T/C [20]: 56.9%
viability, T/C (second compound 0.316 µM, first compound 0.316 µM): 36.8%
viability, T/C (second compound 0.316 µM, first compound 1 µM): 14.6%
viability, T/C [21]: 86.9%
viability, T/C [22]: 96.9%
viability, T/C [23]: 83.1%
viability, T/C [24]: 66.4%
viability, T/C (second compound 1 µM, first compound 0.316 µM): 37.4%
viability, T/C (second compound 1 µM, first compound 1 µM): 15.5%

NC(=O)C(=Cn1cnc(-c2cc(C(F)(F)F)cc(C(F)(F)F)c2)n1)c1cncnc1 + CNC(C)C(=O)NC1CN(S(=O)(=O)c2cccc(S(=O)(=O)N3CCC4CCC(C(=O)NC(c5ccccc5)c5ccccc5)N4C(=O)C(NC(=O)C(C)NC)C3)c2)CCC2CCC(C(=O)NC(c3ccccc3)c3ccccc3)N2C1=O
IC50 (second compound 0.00316 µM): > 300 nM
IC50 (second compound 0.01 µM): > 300 nM
IC50 (second compound 0.0316 µM): > 300 nM
IC50 (second compound 0.1 µM): > 300 nM
IC50 (second compound 0.316 µM): > 300 nM
IC50 (second compound 1 µM): > 300 nM
viability, T/C (second compound 0.00316 µM, first compound 0.000949 µM): 103%
viability, T/C (second compound 0.00316 µM, first compound 0.003 µM): 80.5%
viability, T/C (second compound 0.00316 µM, first compound 0.00949 µM): 90.2%
viability, T/C (second compound 0.00316 µM, first compound 0.03 µM): 91.6%
viability, T/C (second compound 0.00316 µM, first compound 0.0949 µM): 102%
viability, T/C (second compound 0.00316 µM, first compound 0.3 µM): 95.3%
viability, T/C (second compound 0.01 µM, first compound 0.000949 µM): 87%
viability, T/C (second compound 0.01 µM, first compound 0.003 µM): 89.9%
viability, T/C (second compound 0.01 µM, first compound 0.00949 µM): 89.3%
viability, T/C (second compound 0.01 µM, first compound 0.03 µM): 87.6%
viability, T/C (second compound 0.01 µM, first compound 0.0949 µM): 95.3%
viability, T/C (second compound 0.01 µM, first compound 0.3 µM): 85.2%
viability, T/C (second compound 0.0316 µM, first compound 0.000949 µM): 82%
viability, T/C (second compound 0.0316 µM, first compound 0.003 µM): 91.4%
viability, T/C (second compound 0.0316 µM, first compound 0.00949 µM): 83.3%
viability, T/C (second compound 0.0316 µM, first compound 0.03 µM): 81%
viability, T/C (second compound 0.0316 µM, first compound 0.0949 µM): 90.5%
viability, T/C (second compound 0.0316 µM, first compound 0.3 µM): 78.3%
viability, T/C (second compound 0.1 µM, first compound 0.000949 µM): 84%
viability, T/C (second compound 0.1 µM, first compound 0.003 µM): 83.1%
viability, T/C (second compound 0.1 µM, first compound 0.00949 µM): 79.9%
viability, T/C (second compound 0.1 µM, first compound 0.03 µM): 91.3%
viability, T/C (second compound 0.1 µM, first compound 0.0949 µM): 102%
viability, T/C (second compound 0.1 µM, first compound 0.3 µM): 80.5%
viability, T/C (second compound 0.316 µM, first compound 0.000949 µM): 89.2%
viability, T/C (second compound 0.316 µM, first compound 0.003 µM): 78%
viability, T/C (second compound 0.316 µM, first compound 0.00949 µM): 79.2%
viability, T/C (second compound 0.316 µM, first compound 0.03 µM): 81.5%
viability, T/C (second compound 0.316 µM, first compound 0.0949 µM): 103%
viability, T/C (second compound 0.316 µM, first compound 0.3 µM): 71.9%
viability, T/C (second compound 1 µM, first compound 0.000949 µM): 78.3%
viability, T/C (second compound 1 µM, first compound 0.003 µM): 90.7%
viability, T/C (second compound 1 µM, first compound 0.00949 µM): 79.7%
viability, T/C (second compound 1 µM, first compound 0.03 µM): 85.3%
viability, T/C (second compound 1 µM, first compound 0.0949 µM): 88.8%
viability, T/C (second compound 1 µM, first compound 0.3 µM): 66.7%

NC1CCC(NC2CC2c2ccccc2)CC1 (stereo unspecified) + CNC(C)C(=O)NC1CN(S(=O)(=O)c2cccc(S(=O)(=O)N3CCC4CCC(C(=O)NC(c5ccccc5)c5ccccc5)N4C(=O)C(NC(=O)C(C)NC)C3)c2)CCC2CCC(C(=O)NC(c3ccccc3)c3ccccc3)N2C1=O
IC50 (second compound 0.00316 µM): > 100 nM
IC50 (second compound 0.01 µM): > 100 nM
IC50 (second compound 0.0316 µM): > 100 nM
IC50 (second compound 0.1 µM): > 100 nM
IC50 (second compound 0.316 µM): > 100 nM
IC50 (second compound 1 µM): > 100 nM
viability, T/C (second compound 0.00316 µM, first compound 0.000316 µM): 99.3%
viability, T/C (second compound 0.00316 µM, first compound 0.001 µM): 94%
viability, T/C [1]: 90%
viability, T/C [2]: 87.5%
viability, T/C [3]: 99.4%
viability, T/C [4]: 87.8%
viability, T/C (second compound 0.01 µM, first compound 0.000316 µM): 95%
viability, T/C (second compound 0.01 µM, first compound 0.001 µM): 95.9%
viability, T/C [5]: 88.5%
viability, T/C [6]: 85%
viability, T/C [7]: 93.5%
viability, T/C [8]: 94.4%
viability, T/C (second compound 0.0316 µM, first compound 0.000316 µM): 95%
viability, T/C (second compound 0.0316 µM, first compound 0.001 µM): 96.8%
viability, T/C [9]: 85.7%
viability, T/C [10]: 86.5%
viability, T/C [11]: 84.5%
viability, T/C [12]: 93.4%
viability, T/C (second compound 0.1 µM, first compound 0.000316 µM): 98.9%
viability, T/C (second compound 0.1 µM, first compound 0.001 µM): 102%
viability, T/C [13]: 96.5%
viability, T/C [14]: 93%
viability, T/C [15]: 92.8%
viability, T/C [16]: 87.8%
viability, T/C (second compound 0.316 µM, first compound 0.000316 µM): 102%
viability, T/C (second compound 0.316 µM, first compound 0.001 µM): 97.9%
viability, T/C [17]: 108%
viability, T/C [18]: 84.9%
viability, T/C [19]: 97.8%
viability, T/C [20]: 93.5%
viability, T/C (second compound 1 µM, first compound 0.000316 µM): 94.6%
viability, T/C (second compound 1 µM, first compound 0.001 µM): 76.7%
viability, T/C [21]: 99.3%
viability, T/C [22]: 85.9%
viability, T/C [23]: 90.7%
viability, T/C [24]: 92.3%
